Measurements: patent publication US6737383B1, “Herbicidal oxadiazolidines” (priority 1999, dated 2004)

How the values were obtained:
morningglory = experiment: Test B pre/postemergence morningglory; format: in vivo, Ipomoea hederacea
Method in brief: (§1)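 Response is a visual 0-to-10 score relative to untreated plants, where 0 means no effect and 10 means complete control, taken twelve to sixteen days after application. Treatments went onto soil at planting and onto foliage of 1- to 4-leaf plants, using a surfactant-containing non-phytotoxic solvent.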

surinam grass = experiment: Test B pre/postemergence surinam grass; format: in vivo, Brachiaria decumbens
Method in brief: as §1

pigweed = experiment: Test B pre/postemergence pigweed; format: in vivo, Amaranthus retroflexus
Method in brief: as §1

wheat = experiment: Test B pre/postemergence wheat; format: in vivo, Triticum aestivum
Method in brief: as §1

velvetleaf = experiment: Test B pre/postemergence velvetleaf; format: in vivo, Abutilon theophrasti
Method in brief: as §1

blackgrass = experiment: Test B pre/postemergence blackgrass; format: in vivo, Alopecurus myosuroides
Method in brief: as §1

crabgrass = experiment: Test B pre/postemergence crabgrass; format: in vivo, Digitaria sanguinalis
Method in brief: as §1

bamyardgrass = experiment: Test B flood test barnyardgrass; format: in vivo, Echinochloa crus-galli
Method in brief: (§2)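 Each value is a visual injury score relative to controls, with 10 meaning complete control and 0 no effect. Evaluation took place twelve to sixteen days after the 2-leaf-stage plants were treated and kept in the greenhouse.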

soybean = experiment: Test B pre/postemergence soybean; format: in vivo, Glycine max
Method in brief: as §1

corn = experiment: Test B pre/postemergence corn; format: in vivo, Zea mays
Method in brief: as §1

sugar beet = experiment: Test B pre/postemergence sugar beet; format: in vivo, Beta vulgaris
Method in brief: as §1

smallflower flatsedge = experiment: Test B flood test smallflower flatsedge; format: in vivo, Cyperus difformis
Method in brief: as §2

rape = experiment: Test B pre/postemergence rape; format: in vivo, Brassica napus
Method in brief: as §1

wild oat = experiment: Test B pre/postemergence wild oat; format: in vivo, Avena fatua
Method in brief: as §1

duck salad = experiment: Test B flood test duck salad; format: in vivo, Heteranthera limosa
Method in brief: as §2

rice = experiment: Test B flood test rice; format: in vivo, Oryza sativa
Method in brief: as §2

bedstraw = experiment: Test B pre/postemergence bedstraw; format: in vivo, Galium aparine; conditions: Preemergence; for Bedstraw plant response rating: scale 0 to 10, 0 is no effect, 10 is complete control
Method in brief: as §1

giant foxtail = experiment: Test B pre/postemergence giant foxtail; format: in vivo, Setaria faberii
Method in brief: as §1

cocklebur = experiment: Test B pre/postemergence cocklebur; format: in vivo, Xanthium strumarium
Method in brief: as §1

purple nutsedge = experiment: Test B pre/postemergence purple nutsedge; format: in vivo, Cyperus rotundus
Method in brief: as §1

[1] = Postemergence, Rate 125 g/ha, scale 0 to 10, 0 is no effect, 10 is complete control
[2] = Postemergence, Rate 500 g/ha, scale 0 to 10, 0 is no effect, 10 is complete control
[3] = Preemergence, Rate 62 g/ha, scale of 0 to 10 where 0 is no effect and 10 is complete control
[4] = Preemergence, Rate 125 g/ha, scale 0 to 10, 0 is no effect, 10 is complete control
[5] = Preemergence, Rate 500 g/ha, scale 0 to 10, 0 is no effect, 10 is complete control
[6] = Rate 62 g/ha, Postemergence, scale 0 to 10 (0 no effect, 10 complete control)
[7] = Preemergence, Rate 250 g/ha, scale 0 to 10, 0 is no effect, 10 is complete control
[8] = Postemergence, Rate 250 g/ha, scale 0 to 10
[9] = Rate 62 g/ha, flood test species, Pre-emergence, visual evaluation after twelve to sixteen days
[10] = Rate 125 g/ha, under heading Pre-emergence, flood test species, visual evaluation after twelve to sixteen days
[11] = Rate 250 g/ha, Pre-emergence (flood test species), scale 0 to 10, 0 is no effect, 10 is complete control
[12] = Rate 500 g/ha, Pre-emergence section of Table B, 0 to 10 scale (0 no effect, 10 complete control)

## CC(C)N(C(=O)n1oc(=O)n(CCNC(=O)CCl)c1=O)c1ccccc1 [Compound 492]
morningglory; [1]
  Morningglory plant response rating: 5
morningglory; [2]
  Plant response rating, Morningglory: 8
morningglory; [3]
  Plant response rating, Morningglory: 0
morningglory; [4]
  Morningglory plant response rating: 0
morningglory; [5]
  Morningglory plant response rating: 0
morningglory; [6]
  Morningglory plant response rating: 0
Surinam grass; [1]
  B. signalgrass plant response rating: 0
Surinam grass; Postemergence, Rate 250 g/ha, scale 0 to 10, 0 no effect, 10 complete control
  B. signalgrass plant response rating: 0
Surinam grass; [2]
  Plant response rating, B. signalgrass: 0
Surinam grass; [3]
  Plant response rating, B. signalgrass: 0
Surinam grass; [4]
  B. signalgrass plant response rating: 0
Surinam grass; [7]
  B. signalgrass plant response rating: 0
Surinam grass; [5]
  B. signalgrass plant response rating: 0
Surinam grass; [6]
  B. signalgrass plant response rating: 0
pigweed; [1]
  Redroot pigweed plant response rating: 0
pigweed; [2]
  Plant response rating, Redroot pigweed: 7
pigweed; [3]
  Plant response rating, Redroot pigweed: 0
pigweed; [4]
  Redroot pigweed plant response rating: 0
pigweed; [5]
  Redroot pigweed plant response rating: 0
pigweed; [6]
  Redroot pigweed plant response rating: 0
wheat; [1]
  Wheat plant response rating: 0
wheat; [2]
  Plant response rating, Wheat: 0
wheat; [3]
  Plant response rating, Wheat: 0
wheat; [4]
  Wheat plant response rating: 0
wheat; [5]
  Wheat plant response rating: 0
wheat; [6]
  Wheat plant response rating: 0
velvetleaf; [1]
  Velvetleaf plant response rating: 0
velvetleaf; [2]
  Plant response rating, Velvetleaf: 0
velvetleaf; [3]
  Plant response rating, Velvetleaf: 0
velvetleaf; [4]
  Velvetleaf plant response rating: 0
velvetleaf; [5]
  Velvetleaf plant response rating: 4
velvetleaf; [6]
  Velvetleaf plant response rating: 0
blackgrass; [1]
  Blackgrass plant response rating: 0
blackgrass; [8]
  Blackgrass plant response rating: 0
blackgrass; [2]
  Plant response rating, Blackgrass: 0
blackgrass; [3]
  Plant response rating, Blackgrass: 0
blackgrass; [4]
  Blackgrass plant response rating: 0
blackgrass; [7]
  Blackgrass plant response rating: 0
blackgrass; [5]
  Blackgrass plant response rating: 0
blackgrass; [6]
  Blackgrass plant response rating: 0
crabgrass; [8]
  Crabgrass plant response rating: 0
crabgrass; [2]
  Plant response rating, Crabgrass: 0
crabgrass; [3]
  Plant response rating, Crabgrass: 0
crabgrass; [4]
  Crabgrass plant response rating: 0
crabgrass; [5]
  Crabgrass plant response rating: 3
crabgrass; [6]
  Crabgrass plant response rating: 0
bamyardgrass; [9]
  Plant response rating, Barnyardgrass (0 to 10 scale, 0 is no effect, 10 is complete control): 0
bamyardgrass; [10]
  Barnyardgrass plant response rating (0 to 10 scale, 0 is no effect, 10 is complete control): 0
bamyardgrass; [11]
  Barnyardgrass plant response rating: 0
bamyardgrass; [12]
  Barnyardgrass plant response rating: 0
soybean; [1]
  Soybean plant response rating: 0
soybean; [2]
  Plant response rating, Soybean: 0
soybean; [3]
  Plant response rating, Soybean: 0
soybean; [4]
  Soybean plant response rating: 0
soybean; [5]
  Soybean plant response rating: 0
soybean; [6]
  Soybean plant response rating: 0
corn; [1]
  Corn plant response rating: 0
corn; [8]
  Corn plant response rating: 0
corn; [2]
  Plant response rating, Corn: 0
corn; [3]
  Plant response rating, Corn: 0
corn; [4]
  Corn plant response rating: 0
corn; [5]
  Corn plant response rating: 0
corn; [6]
  Corn plant response rating: 0
Sugar beet; [1]
  Sugarbeets plant response rating: 0
Sugar beet; [2]
  Plant response rating, Sugarbeets: 0
Sugar beet; [3]
  Plant response rating, Sugarbeets: 0
Sugar beet; [4]
  Sugarbeets plant response rating: 0
Sugar beet; [5]
  Sugarbeets plant response rating: 0
Sugar beet; [6]
  Sugarbeets plant response rating: 0
Smallflower flatsedge; [9]
  Plant response rating, S. Flatsedge (0 to 10 scale, 0 is no effect, 10 is complete control): 0
Smallflower flatsedge; [10]
  S. Flatsedge plant response rating (0 to 10 scale, 0 is no effect, 10 is complete control): 0
Smallflower flatsedge; [11]
  S. Flatsedge plant response rating: 0
Smallflower flatsedge; [12]
  S. Flatsedge plant response rating: 0
rape; [1]
  Rape plant response rating: 0
rape; [2]
  Plant response rating, Rape: 0
rape; [3]
  Plant response rating, Rape: 0
rape; [4]
  Rape plant response rating: 0
rape; [5]
  Rape plant response rating: 0
rape; [6]
  Rape plant response rating: 0
Wild oat; [1]
  Wild oats plant response rating: 0
Wild oat; [2]
  Plant response rating, Wild oats: 0
Wild oat; [3]
  Plant response rating, Wild oats: 0
Wild oat; [4]
  Wild oats plant response rating: 0
Wild oat; [5]
  Wild oats plant response rating: 0
Wild oat; [6]
  Wild oats plant response rating: 0
Duck salad; [9]
  Plant response rating, Ducksalad (0 to 10 scale, 0 is no effect, 10 is complete control): 0
Duck salad; [10]
  Ducksalad plant response rating (0 to 10 scale, 0 is no effect, 10 is complete control): 0
Duck salad; [11]
  Ducksalad plant response rating: 0
Duck salad; [12]
  Ducksalad plant response rating: 0
rice; [9]
  Plant response rating, Rice (0 to 10 scale, 0 is no effect, 10 is complete control): 0
rice; [10]
  Rice plant response rating (0 to 10 scale, 0 is no effect, 10 is complete control): 0
rice; [11]
  Rice plant response rating: 0
rice; [12]
  Rice plant response rating: 0
bedstraw; Rate 62 g/ha, scale of 0 to 10 where 0 is no effect and 10 is complete control
  Plant response rating, Bedstraw: 0
bedstraw; Rate 125 g/ha
  Bedstraw plant response rating: 0
bedstraw; Rate 250 g/ha
  Bedstraw plant response rating: 0
bedstraw; Rate 500 g/ha
  Bedstraw plant response rating: 0
Giant foxtail; [1]
  Giant foxtail plant response rating: 0
Giant foxtail; [2]
  Plant response rating, Giant foxtail: 0
Giant foxtail; [3]
  Plant response rating, Giant foxtail: 2
Giant foxtail; [4]
  Giant foxtail plant response rating: 0
Giant foxtail; [5]
  Giant foxtail plant response rating: 9
Giant foxtail; [6]
  Giant foxtail plant response rating: 0
cocklebur; [1]
  Cocklebur plant response rating: 0
cocklebur; [8]
  Cocklebur plant response rating: 0
cocklebur; [2]
  Plant response rating, Cocklebur: 0
cocklebur; [3]
  Plant response rating, Cocklebur: 0
cocklebur; [4]
  Cocklebur plant response rating: 0
cocklebur; [7]
  Cocklebur plant response rating: 0
cocklebur; [5]
  Cocklebur plant response rating: 0
cocklebur; [6]
  Cocklebur plant response rating: 0
Purple nutsedge; [1]
  Nutsedge plant response rating: 0
Purple nutsedge; [2]
  Plant response rating, Nutsedge: 0
Purple nutsedge; [3]
  Plant response rating, Nutsedge: 0
Purple nutsedge; [4]
  Nutsedge plant response rating: 0
Purple nutsedge; [5]
  Nutsedge plant response rating: 0
Purple nutsedge; [6]
  Nutsedge plant response rating: 0
